# Assays:
# [1] = biological target: T1, EGFR (aa668-1210, Invitrogen) (Homo sapiens, UniProt P00533); test: Biochemical EGFR inhibition assay (TR-FRET), wild-type EGFR; details: ATP at Km, 15 min pre-incubation, 60 min reaction; read-out: WT (Km ATP) IC50
# T1 construct: EGFR (aa668-1210, Invitrogen); purchased Invitrogen
# Procedure: (§1) Compounds were tested for inhibition of kinase activity against EGFR (aa668-1210, Invitrogen), EGFR(L858R_T790M_C797S) (aa695-end, Invitrogen) and EGFR(Dell9_T790M_C797S) (aa 669-1210, in house) in assays based on time-resolved fluorescence-resonance energy transfer (TR-FRET) methodology. Recombinant EGFR, EGFR(L858R_T790M_C797S) or EGFR(Dell9_T790M_C797S) was pre-incubated with the compounds at room temperature for 15 minutes in an assay buffer containing 50 mM HEPES pH7.5, 10 mM MgCl2, 2 mM DTT, 1 mM EGTA, 0.1% BSA, 0.01% Tween-20. The reactions were initiated by the addition of ATP (at the concentration of ATP Km) and substrate Biotin-Poly GT. After reaction at room temperature for 60 minutes, stop/detection solution was added. The stop/detection solution contained Eu^3+ cryptate-conjugated mouse monoclonal antibody (PT66) anti-phosphotyrosine and XL665-conjugated streptavidin in buffer containing 50 mM HEPES pH7.0, 800 mM KF, 20 mM EDTA, and 0.1% BSA. Plates were sealed and incubated at room temperature for 1 hour, and the TR-FRET signals (ratio of fluorescence emission at 665 nm over emission at 620 nm with excitation at 337 nm wavelength) were recorded on a PHERAstar FS plate reader (BMG Labtech). The residual enzyme activity in presence of increasing concentrations of compounds was calculated based on the ratio of fluorescence at 665 nm to that at 620 nm. The IC50 for each compound was derived from fitting the data to the four-parameter logistic equation by Dotmatics or Graphpad Prism software.
# (§2) These biochemical EGFR enzyme form compound dose-response assays quantify the kinase activity via phosphorylation of a tagged poly-GT substrate. The results of the assay are provided as IC50 values.
# [2] = biological target: T2, EGFR(L858R_T790M_C797S) (aa695-end, Invitrogen) (Homo sapiens, UniProt P00533, C797S/L858R/T790M); test: Biochemical EGFR inhibition assay (TR-FRET), L858R/T790M/C797S mutant; details: ATP at Km, 15 min pre-incubation, 60 min reaction; read-out: LR_TM_CS (Km ATP) IC50
# T2 construct: purchased Invitrogen
# Procedure: as §1, §2
# [3] = biological target: EGFR(Dell9_T790M_C797S) (aa 669-1210, in house) (Homo sapiens, UniProt P00533, T790M/C797S, form not given); test: Biochemical EGFR inhibition assay (TR-FRET), Del19/T790M/C797S mutant; details: ATP at Km, 15 min pre-incubation, 60 min reaction; read-out: Del_TM_CS (Km ATP) IC50
# Procedure: as §1, §2
# T2 sequence (P00533 695-1210 T790M/C797S/L858R): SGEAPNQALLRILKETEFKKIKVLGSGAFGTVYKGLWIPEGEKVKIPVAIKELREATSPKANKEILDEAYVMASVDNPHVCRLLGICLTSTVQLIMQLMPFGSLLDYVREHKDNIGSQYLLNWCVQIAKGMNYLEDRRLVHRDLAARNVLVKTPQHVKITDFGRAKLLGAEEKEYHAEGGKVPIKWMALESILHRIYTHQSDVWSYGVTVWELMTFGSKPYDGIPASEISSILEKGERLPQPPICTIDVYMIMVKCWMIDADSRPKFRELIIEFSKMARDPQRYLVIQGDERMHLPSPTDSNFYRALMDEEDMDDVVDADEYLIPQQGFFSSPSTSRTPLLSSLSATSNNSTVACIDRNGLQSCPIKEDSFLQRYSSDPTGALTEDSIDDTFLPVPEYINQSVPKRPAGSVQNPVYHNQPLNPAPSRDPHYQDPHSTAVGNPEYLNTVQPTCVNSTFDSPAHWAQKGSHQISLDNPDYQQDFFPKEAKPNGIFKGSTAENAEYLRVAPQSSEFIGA
# Sequence of EGFR(Dell9_T790M_C797S) (aa 669-1210, in house) (P00533 with tags, fused parts or gaps DEL746-750/T790M/C797S, form open): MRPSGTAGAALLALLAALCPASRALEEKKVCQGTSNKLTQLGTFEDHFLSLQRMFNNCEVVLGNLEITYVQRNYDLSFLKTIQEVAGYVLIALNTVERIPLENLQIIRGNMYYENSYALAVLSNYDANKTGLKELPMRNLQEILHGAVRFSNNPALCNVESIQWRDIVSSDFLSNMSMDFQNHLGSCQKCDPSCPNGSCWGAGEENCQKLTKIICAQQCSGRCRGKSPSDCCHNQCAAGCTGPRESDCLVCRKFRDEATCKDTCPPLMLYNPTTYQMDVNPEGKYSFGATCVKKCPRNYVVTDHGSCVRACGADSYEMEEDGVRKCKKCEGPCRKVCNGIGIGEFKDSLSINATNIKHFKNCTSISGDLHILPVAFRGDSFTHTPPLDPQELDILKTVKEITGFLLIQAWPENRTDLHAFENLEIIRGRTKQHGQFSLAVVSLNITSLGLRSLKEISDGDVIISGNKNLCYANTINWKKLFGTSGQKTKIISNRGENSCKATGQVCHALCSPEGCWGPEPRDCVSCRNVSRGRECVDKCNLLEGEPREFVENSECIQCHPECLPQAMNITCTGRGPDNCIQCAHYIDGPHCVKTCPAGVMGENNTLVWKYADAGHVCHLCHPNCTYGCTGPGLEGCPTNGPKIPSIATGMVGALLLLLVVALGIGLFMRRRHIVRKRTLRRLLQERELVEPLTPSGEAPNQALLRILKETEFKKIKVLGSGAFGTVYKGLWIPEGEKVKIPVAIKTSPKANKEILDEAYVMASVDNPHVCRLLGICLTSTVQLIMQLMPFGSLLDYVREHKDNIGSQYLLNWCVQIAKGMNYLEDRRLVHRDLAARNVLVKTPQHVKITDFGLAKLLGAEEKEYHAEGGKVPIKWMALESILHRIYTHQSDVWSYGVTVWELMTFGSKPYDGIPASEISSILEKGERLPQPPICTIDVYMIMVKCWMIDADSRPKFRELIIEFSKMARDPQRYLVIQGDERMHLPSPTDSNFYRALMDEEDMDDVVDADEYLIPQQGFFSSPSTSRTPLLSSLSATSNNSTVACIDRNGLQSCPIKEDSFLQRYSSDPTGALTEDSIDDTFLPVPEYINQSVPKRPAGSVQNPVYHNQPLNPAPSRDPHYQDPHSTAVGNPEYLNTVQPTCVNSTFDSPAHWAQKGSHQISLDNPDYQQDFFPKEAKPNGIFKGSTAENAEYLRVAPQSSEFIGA
# T1 sequence (P00533 668-1210): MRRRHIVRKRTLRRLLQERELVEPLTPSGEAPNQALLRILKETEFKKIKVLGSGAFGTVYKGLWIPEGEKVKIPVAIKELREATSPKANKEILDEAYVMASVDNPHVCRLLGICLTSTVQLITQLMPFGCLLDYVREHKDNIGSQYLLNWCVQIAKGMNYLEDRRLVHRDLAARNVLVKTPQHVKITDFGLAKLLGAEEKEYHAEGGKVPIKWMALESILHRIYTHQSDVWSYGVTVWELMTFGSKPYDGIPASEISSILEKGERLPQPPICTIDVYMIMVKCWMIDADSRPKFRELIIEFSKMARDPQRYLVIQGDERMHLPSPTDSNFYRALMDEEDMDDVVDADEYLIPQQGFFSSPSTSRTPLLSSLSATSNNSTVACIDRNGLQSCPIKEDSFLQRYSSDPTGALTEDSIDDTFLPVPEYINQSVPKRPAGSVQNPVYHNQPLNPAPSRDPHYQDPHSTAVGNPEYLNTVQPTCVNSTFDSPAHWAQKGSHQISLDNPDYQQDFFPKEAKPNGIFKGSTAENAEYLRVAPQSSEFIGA
Compound,IC50 [1] [nM],IC50 [2] [nM],IC50 [3] [nM]
"CC1Cc2c(N3CCC(N4CCN(C)CC4)CC3)ccc(Nc3ncc(Br)c(Nc4cccc5c4N(S(C)(=O)=O)CC5)n3)c2O1 (stereo not drawn) [Example 61, 5-bromo-N^2-(2-methyl-4-(4-(4-methylpiperazin-1-yl)piperidin-1-yl)-2,3-dihydrobenzofuran-7-yl)-N^4-(1-(methylsulfonyl)indolin-7-yl)pyrimidine-2,4-diamine]",15.2,1.5,1.58
"CN1CCN(c2ccc(Nc3ncc(Br)c(Nc4cccc5c4N(S(C)(=O)=O)CC5)n3)c3c2CC(C)(C)O3)CC1 [Example 56, 5-bromo-N^2-(2,2-dimethyl-4-(4-methylpiperazin-1-yl)-2,3-dihydrobenzofuran-7-yl)-N^4-(1-(methylsulfonyl)indolin-7-yl)pyrimidine-2,4-diamine]",241,23.3,10.6
"COc1cc(N2CCC(N3CCN(C)CC3)CC2)ccc1Nc1ncc(Br)c(Nc2cccc3c2N(S(C)(=O)=O)CC32CC2)n1 [Example 28, 5-bromo-N^2-(2-methoxy-4-(4-(4-methylpiperazin-1-yl)piperidin-1-yl)phenyl)-N^4-(1′-(methylsulfonyl)spiro[cyclopropane-1,3′-indolin]-7′-yl)pyrimidine-2,4-diamine]",0.9,0.44,0.39
"CN1CCN(C2CCN(c3c(F)cc(Nc4ncc(Br)c(Nc5cccc6c5N(S(C)(=O)=O)CC6)n4)c4c3CCO4)CC2)CC1 [Example 60, 5-bromo-N^2-(5-fluoro-4-(4-(4-methylpiperazin-1-yl)piperidin-1-yl)-2,3-dihydrobenzofuran-7-yl)-N^4-(1-(methylsulfonyl)indolin-7-yl)pyrimidine-2,4-diamine]",0.5,0.3,0.35
"CN1CCN(C2CCN(c3ccc(Nc4ncc(Br)c(Nc5cccc6c5N(S(C)(=O)=O)CC6)n4)c4c3CC(C)(C)O4)CC2)CC1 [Example 57, 5-bromo-N^2-(2,2-dimethyl-4-(4-(4-methylpiperazin-1-yl)piperidin-1-yl)-2,3-dihydrobenzofuran-7-yl)-N^4-(1-(methylsulfonyl)indolin-7-yl)pyrimidine-2,4-diamine]",101,17.1,8.79
"COc1cc(-c2cnn(CCN3CCN(C)CC3)c2)ccc1Nc1nc(Nc2cccc3c2N(S(C)(=O)=O)CC3)c2cc[nH]c2n1 [Example 115, N^2-(2-methoxy-4-(1-(2-(4-methylpiperazin-1-yl)ethyl)-1H-pyrazol-4-yl)phenyl)-N^4-(1-(methylsulfonyl)indolin-7-yl)-7H-pyrrolo[2,3-d]pyrimidine-2,4-diamine]",2490,20.7,42.8
"COc1cc(N2CCC(N3CCN(C)CC3=O)CC2)ccc1Nc1nc(Nc2cccc3c2N(S(C)(=O)=O)CC3)c2cc[nH]c2n1 [Example 191, 1-(1-(3-methoxy-4-((4-((1-(methylsulfonyl)indolin-7-yl)amino)-7H-pyrrolo[2,3-d]pyrimidin-2-yl)amino)phenyl)piperidin-4-yl)-4-methylpiperazin-2-one]",31.6,0.6,1.9
"CN1CCN(C2CCN(c3ccc(Nc4nc(Nc5cccc6c5N(S(C)(=O)=O)CC6)c5cc[nH]c5n4)cn3)CC2)CC1 [Example 184, N2-(6-(4-(4-methylpiperazin-1-yl)piperidin-1-yl)pyridin-3-yl)-N4-(1-(methylsulfonyl)indolin-7-yl)-7H-pyrrolo[2,3-d]pyrimidine-2,4-diamine]",427,1.7,2.5
"COc1cc(N2CCC(N3CCN(C)CC3)CC2)ccc1Nc1ncc(Br)c(Nc2cccc3c2N(S(C)(=O)=O)C2(CC2)C3)n1 [Example 136, 5-bromo-N2-(2-methoxy-4-(4-(4-methylpiperazin-1-yl)piperidin-1-yl)phenyl)-N4-(1′-(methylsulfonyl)spiro[cyclopropane-1,2′-indolin]-7′-yl)pyrimidine-2,4-diamine]",1.4,0.3,0.9

# Second part, the compound after the results:
IC50 [1] [nM],IC50 [2] [nM],IC50 [3] [nM],Compound
0.5,0.3,0.7,"COc1cc(N2CCC(N3CCN(C)CC3)CC2)c(C)cc1Nc1ncc(Cl)c(Nc2cccc3c2N(S(C)(=O)=O)CC32CC2)n1 [Example 188, 5-chloro-N2-(2-methoxy-5-methyl-4-(4-(4-methylpiperazin-1-yl)piperidin-1-yl)phenyl)-N4-(1′-(methylsulfonyl)spiro[cyclopropane-1,3′-indolin]-7′-yl)pyrimidine-2,4-diamine]"
1.5,0.3,0.3,"CCN1CCN(C2CCN(c3cc(F)c(Nc4ncc(Br)c(Nc5cccc6c5N(S(C)(=O)=O)CC6)n4)cc3F)CC2)CC1 [Example 185, 5-bromo-N2-(4-(4-(4-ethylpiperazin-1-yl)piperidin-1-yl)-2,5-difluorophenyl)-N4-(1-(methylsulfonyl)indolin-7-yl)pyrimidine-2,4-diamine]"
0.9,0.1,0.2,"COc1cc(N2CCC(N(C)C)CC2)c(C)cc1Nc1ncc(Br)c(Nc2cccc3c2N(S(C)(=O)=O)CC3)n1 [Example 46, 5-bromo-N^2-(4-(4-(dimethylamino)piperidin-1-yl)-2-methoxy-5-methylphenyl)-N^4-(1-(methylsulfonyl)indolin-7-yl)pyrimidine-2,4-diamine]"
3.2,0.3,0.7,"COc1cc(N2CCC3(CCN(C)CC3)CC2)c(Cl)cc1Nc1ncc(Br)c(Nc2cccc3c2N(S(C)(=O)=O)CC3)n1 [Example 44, 5-bromo-N^2-(5-chloro-2-methoxy-4-(9-methyl-3,9-diazaspiro[5.5]undecan-3-yl)phenyl)-N^4-(1-(methylsulfonyl)indolin-7-yl)pyrimidine-2,4-diamine]"
0.9,0.3,0.6,"COc1cc(N2CCC(N3CCN(C)CC3)CC2)c(C)cc1Nc1ncc(Br)c(Nc2cccc3c2N(S(C)(=O)=O)CC32CC2)n1 [Example 181, 5-bromo-N2-(2-methoxy-5-methyl-4-(4-(4-methylpiperazin-1-yl)piperidin-1-yl)phenyl)-N4-(1′-(methylsulfonyl)spiro[cyclopropane-1,3′-indolin]-7′-yl)pyrimidine-2,4-diamine]"
12.1,0.5,0.5,"COc1cc(N2CCN(C)[C@@H](C)C2)c(C)cc1Nc1ncc(Br)c(Nc2cccc3c2N(S(C)(=O)=O)CC3)n1 [Example 43, (S)-5-bromo-N^2-(4-(3,4-dimethylpiperazin-1-yl)-2-methoxy-5-methylphenyl)-N^4-(1-(methylsulfonyl)indolin-7-yl)pyrimidine-2,4-diamine]"
1.2,1.2,2.9,"COc1cc(N2CCC(N3CCN(C)CC3)CC2)c(C)cc1Nc1nc(N)c(Br)c(Nc2cccc3c2N(S(C)(=O)=O)CC3)n1 [Example 197, 5-bromo-N2-(2-methoxy-5-methyl-4-(4-(4-methylpiperazin-1-yl)piperidin-1-yl)phenyl)-N4-(1-(methylsulfonyl)indolin-7-yl)pyrimidine-24,6-triamine]"
11.6,0.68,0.42,"CC1Cc2c(N3CCN(C)CC3)ccc(Nc3ncc(Br)c(Nc4cccc5c4N(S(C)(=O)=O)CC5)n3)c2O1 (stereo not drawn) [Example 62, 5-bromo-N^2-(2-methyl-4-(4-methylpiperazin-1-yl)-2,3-dihydrobenzofuran-7-yl)-N^4-(1-(methylsulfonyl)indolin-7-yl)pyrimidine-2,4-diamine]"
5.5,0.48,0.63,"CC1Cc2c(N3CCC(N(C)C)CC3)ccc(Nc3ncc(Br)c(Nc4cccc5c4N(S(C)(=O)=O)CC5)n3)c2O1 (stereo not drawn) [Example 65, 5-bromo-N^2-(4-(4-(dimethylamino)piperidin-1-yl)-2-methyl-2,3-dihydrobenzofuran-7-yl)-N^4-(1-(methylsulfonyl)indolin-7-yl)pyrimidine-2,4-diamine]"
1,0.2,0.3,"COc1cc(N2CCC3(CC2)CN(C)C3)c(C)cc1Nc1ncc(Br)c(Nc2cccc3c2N(S(C)(=O)=O)CC3)n1 [Example 45, 5-bromo-N^2-(2-methoxy-5-methyl-4-(2-methyl-2,7-diazaspiro[3.5]nonan-7-yl)phenyl)-N^4-(1-(methylsulfonyl)indolin-7-yl)pyrimidine-2,4-diamine]"

# From US20260167619A2, “INDOLINE COMPOUNDS AND DERIVATIVES AS EGFR INHIBITORS” (BeOne Medicines I GmbH, priority 2020, published 2026)
